In patent EP0862417B1, “PHARMACEUTICAL COMPOSITION FOR TOPICAL APPLICATION” (Reckitt Benckiser Healthcare (UK) Limited, priority 1995, dated 1997):

Experiment: Supersaturation potential of a triclosan solution (calculated from solubilities)
Assay type: physicochemical
Conditions: skin pH e.g. pH 5.5; 200ppm triclosan solution at pH 10 as starting composition
Experimental: The supersaturation potential of a solution at pH 10 containing 200ppm triclosan was calculated by dividing the concentration of triclosan in that solution by the concentration of triclosan in the solutions at lower pHs.

With Oc1cc(Cl)ccc1Oc1ccc(Cl)cc1Cl [triclosan] the “degree of supersaturation achievable at a skin pH” value was 30 X.
